Experimental data published in patent US20230339939A1 (Bayer Aktiengesellschaft, priority 2020, published 2023).

Assays:
[1] = target: CSNK1A1 (Homo sapiens (Human), UniProt P48729); assay: CSNK1A1 Assay 2 (ADP-Glo, 1 μM ATP, substrate biotin-Ahx-KRRRAL-pS-VASLPGL); type: biochemical; settings: median, read-out: CSNK1A1 Assay 2 IC50 [mol/l] (median)
Protocol: CSNK1A1-inhibitory activity of compounds of the present invention in presence of 1 μM adenosine-tri-phosphate (ATP) was quantified employing the CSNK1A1 assay as described in the following paragraphs. In essence, the enzyme activity is measured by quantification of the adenosine-di-phosphate (ADP), which is generated as a co-product of the enzyme reaction, via the “ADP-Glo™ Kinase Assay” kit from the company Promega. This detection system works as follows: In a first step the ATP not consumed in the kinase reaction is quantitatively converted to cAMP employing an adenylate cyclase (“ADP-Glo-reagent”), then the adenylate cyclase is stopped and the ADP generated in the kinase reaction converted to ATP which generates in a luciferase-based reaction a glow-luminescence signal (“Kinase Detection Reagent”).
(§1) Recombinant fusion protein of N-terminal Glutathion-S-Transferase (GST) and full-length human CSNK1A1, expressed by baculovirus infected insect cells and purified via Glutathion affinity chromatography, was purchased from Life Technologies (product no. PV4174) and used as enzyme. As substrate for the kinase reaction the biotinylated peptide biotin-Ahx-KRRRAL-pS-VASLPGL (C-terminus in amide form) was used which can be purchased e.g. from the company Biosyntan (Berlin-Buch, Germany).
For the assay 50 nl of a 100 fold concentrated solution of the test compound in DMSO was pipetted into a white 1536-well microtiter plate (Greiner Bio-One, Frickenhausen, Germany), 2 μL of a solution of CSNK1A1 in aqueous assay buffer [50 mM HEPES pH 7.5, 10% (v/v) glycerol, 10 mM MgCl2, 50 mM NaCl, 1 mM dithiothreitol, 0.01% (w/v) bovine serum albumin, 0.01% (v/v) Triton X-100] were added and the mixture was incubated for 15 min at 22° C. to allow pre-binding of the test compounds to the enzyme before the start of the kinase reaction. […] The concentration of CSNK1A1 was adjusted depending of the activity of the enzyme lot and was chosen appropriate to have the assay in the linear range, a typical concentrations are about 0.0375 ng/μL. The reaction was stopped by the addition of 2.5 μL of “ADP-Glo-reagent” (1:1.5 fold diluted with water) and the resulting mixture was incubated at 22° C. for 1 h to convert the ATP not consumed in the kinase reaction completely […]. Subsequently 2.5 μL of the “kinase detection reagent” (1.2 fold more concentrated than recommended by the producer) were added, the resulting mixture was incubated at 22° C. for 1 h and then the luminescence measured with a suitable measurement instrument (e.g. Viewlux™ from Perkin-Elmer). The amount of emitted light was taken as a measure for the amount of ADP generated and thereby for the activity of the CSNK1A1.

[2] = target: CSNK1D (Homo sapiens (Human), UniProt P48730); assay: CSNK1D Assay (ADP-Glo, 1 μM ATP); type: biochemical; settings: median, read-out: CSNK1D IC50 [mol/l] (median)
CSNK1D, sequence (P48730 whole entry): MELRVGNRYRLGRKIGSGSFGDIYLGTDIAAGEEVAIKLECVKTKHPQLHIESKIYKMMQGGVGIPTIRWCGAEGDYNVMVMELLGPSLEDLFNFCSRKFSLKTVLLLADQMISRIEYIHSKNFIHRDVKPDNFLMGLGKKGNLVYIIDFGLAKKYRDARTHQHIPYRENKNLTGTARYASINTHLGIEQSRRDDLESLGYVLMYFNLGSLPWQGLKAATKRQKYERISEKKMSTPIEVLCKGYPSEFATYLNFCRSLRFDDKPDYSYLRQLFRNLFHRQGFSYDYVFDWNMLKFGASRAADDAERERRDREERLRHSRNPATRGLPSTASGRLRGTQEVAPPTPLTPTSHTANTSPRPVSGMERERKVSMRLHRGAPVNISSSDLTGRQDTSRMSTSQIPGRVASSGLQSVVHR
Protocol: CSNK1D-inhibitory activity of compounds of the present invention in presence of 1 μM adenosine-tri-phosphate (ATP) was quantified employing the CSNK1 D assay as described in the following paragraphs. In essence, the enzyme activity is measured by quantification of the adenosine-di-phosphate (ADP), which is generated as a co-product of the enzyme reaction, via the “ADP-Glo™ Kinase Assay” kit from the company Promega. This detection system works as follows: In a first step the ATP not consumed in the kinase reaction is quantitatively converted to cAMP employing an adenylate cyclase (“ADP-Glo-reagent”), then the adenylate cyclase is stopped and the ADP generated in the kinase reaction converted to ATP which generates in a luciferase-based reaction a glow-luminescence signal (“Kinase Detection Reagent”).
as §1, with “CSNK1D,” for “CSNK1A1,”, “PV3665)” for “PV4174)”, “Btn-Ahx-[…]” for “biotin-Ahx-KRRRAL-pS-VASLPGL”
For the assay 50 nl of a 100 fold concentrated solution of the test compound in DMSO was pipetted into a white 1536-well microtiter plate (Greiner Bio-One, Frickenhausen, Germany), 2 μL of a solution of CSNK1D in aqueous assay buffer [50 mM HEPES pH 7.5, 10% (v/v) glycerol, 10 mM MgCl2, 50 mM NaCl, 1 mM dithiothreitol, 0.01% (w/v) bovine serum albumin, 0.01% (v/v) Triton X-100] were added and the mixture was incubated for 15 min at 22° C. to allow pre-binding of the test compounds to the enzyme before the start of the kinase reaction. […] The concentration of CSNK1D was adjusted depending of the activity of the enzyme lot and was chosen appropriate to have the assay in the linear range, a typical concentration is about 0.5 ng/μL. The reaction was stopped by the addition of 2.5 μL of “ADP-Glo-reagent” (1:1.5 fold diluted with water) and the resulting mixture was incubated at 22° C. for 1 h to convert the ATP not consumed in the kinase reaction completely […]. Subsequently 2.5 μL of the “kinase detection reagent” (1.2 fold more concentrated than recommended by the producer) were added, the resulting mixture was incubated at 22° C. for 1 h and then the luminescence measured with a suitable measurement instrument (e.g. Viewlux™ from Perkin-Elmer). The amount of emitted light was taken as a measure for the amount of ADP generated and thereby for the activity of the CSNK1D.

CSNK1A1, sequence (P48729 whole entry): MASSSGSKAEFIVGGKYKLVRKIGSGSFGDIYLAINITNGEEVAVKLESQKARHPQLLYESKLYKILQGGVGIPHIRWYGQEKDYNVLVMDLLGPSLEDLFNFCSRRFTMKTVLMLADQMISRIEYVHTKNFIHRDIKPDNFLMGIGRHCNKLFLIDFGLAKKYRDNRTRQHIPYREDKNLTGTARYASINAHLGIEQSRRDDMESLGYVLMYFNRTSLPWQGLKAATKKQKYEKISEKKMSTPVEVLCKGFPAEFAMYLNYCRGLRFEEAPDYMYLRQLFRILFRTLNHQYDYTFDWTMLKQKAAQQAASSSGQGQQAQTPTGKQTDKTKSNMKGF

Structure (SMILES) | IC50 [1] [nM] | IC50 [2] [nM]
O=C(Cc1ccc(F)cc1)Nc1cc(-c2[nH]c3ccnnc3c2-c2ccccn2)ccn1 [Example 21, 2-(4-fluorophenyl)-N-{4-[7-(pyridin-2-yl)-5H-pyrrolo[3,2-c]pyridazin-6-yl]pyridin-2-yl}acetamide] | 1.66 | 3.96
O=C(Cc1ccc(F)cc1)Nc1cc(-c2[nH]c3ccc(Cl)nc3c2-c2ccccn2)ccn1 [Example 23, N-{4-[5-chloro-3-(pyridin-2-yl)-1H-pyrrolo[3,2-b]pyridin-2-yl]pyridin-2-yl}-2-(4-fluorophenyl)acetamide] | 0.941 | 3.18
CN1CCC(N(C)c2ccnc3c(-c4ccccn4)c(-c4ccnc(NC(=O)Cc5ccc(F)cc5)c4)[nH]c23)CC1 [Example 39, 2-(4-fluorophenyl)-N-(4-{7-[methyl(1-methylpiperidin-4-yl)amino]-3-(pyridin-2-yl)-1H-pyrrolo[3,2-b]pyridin-2-yl}pyridin-2-yl)acetamide] | 3.49 | 13.6
O=C(Cc1ccc(F)cc1)Nc1cc(-c2[nH]c3cccnc3c2-c2ncccn2)ccn1 [Example 51, 2-(4-fluorophenyl)-N-{4-[3-(pyrimidin-2-yl)-1H-pyrrolo[3,2-b]pyridin-2-yl]pyridin-2-yl}acetamide] | 7.93 | 20
Cc1cc2[nH]c(-c3ccnc(NC(=O)C(C)c4ccc(F)cc4)c3)c(-c3ccccn3)c2nc1F (single isomer, unassigned; (-)) [Example 30, (−)-N-{4-[5-fluoro-6-methyl-3-(pyridin-2-yl)-1H-pyrrolo[3,2-b]pyridin-2-yl]pyridin-2-yl}-2-(4-fluorophenyl)propanamide] | 1.69 | 4.65
COCC(C(=O)Nc1cc(-c2[nH]c3cccnc3c2-c2ccccn2)ccn1)c1ccc(F)cc1 (racemic) [Example 43, (2RS)-2-(4-fluorophenyl)-3-methoxy-N-(4-(3-(pyridin-2-yl)-1H-pyrrolo[3,2-b]pyridin-2-yl)pyridin-2-yl)propanamide] | 3.51 | 6.46
O=C(Cc1ccc(F)cc1)Nc1cc(-c2[nH]c3cccnc3c2-c2cccc(F)c2)ccn1 [Example 15, 2-(4-fluorophenyl)-N-{4-[3-(3-fluorophenyl)-1H-pyrrolo[3,2-b]pyridin-2-yl]pyridin-2-yl}acetamide] | 1.87 | 3.4
O=C(Cc1ccc(F)cc1)Nc1cc(-c2[nH]c3cc(F)cnc3c2-c2ccccc2)ccn1 [Example 10, 2-(4-fluorophenyl)-N-[4-(6-fluoro-3-phenyl-1H-pyrrolo[3,2-b]pyridin-2-yl)pyridin-2-yl]acetamide] | 3.83 | 4.27
C=Cc1ccnc2c(-c3ccccn3)c(-c3ccnc(NC(=O)Cc4ccc(F)cc4)c3)[nH]c12 [Example 33, N-{4-[7-ethenyl-3-(pyridin-2-yl)-1H-pyrrolo[3,2-b]pyridin-2-yl]pyridin-2-yl}-2-(4-fluorophenyl)acetamide] | 3.97 | 9.16
CN1CCN(c2ccnc3c(-c4ccccn4)c(-c4ccnc(NC(=O)Cc5ccc(F)cc5)c4)[nH]c23)CC1 [Example 38, 2-(4-fluorophenyl)-N-{4-[7-(4-methylpiperazin-1-yl)-3-(pyridin-2-yl)-1H-pyrrolo[3,2-b]pyridin-2-yl]pyridin-2-yl}acetamide] | 3.32 | 5.59
CC(C(=O)Nc1cc(-c2[nH]c3ccc(F)nc3c2-c2ccccn2)ccn1)c1ccc(F)cc1 (single isomer, unassigned; (+)) [Example 3, (+)-2-(4-fluorophenyl)-N-{4-[5-fluoro-3-(pyridin-2-yl)-1H-pyrrolo[3,2-b]pyridin-2-yl]pyridin-2-yl}propanamide] | 1 | 2.87
CC(C(=O)Nc1cc(-c2[nH]c3ccc(F)nc3c2-c2ccccn2)ccn1)c1ccc(F)cc1 (single isomer, unassigned; (-)) [Example 2, (−)-2-(4-fluorophenyl)-N-{4-[5-fluoro-3-(pyridin-2-yl)-1H-pyrrolo[3,2-b]pyridin-2-yl]pyridin-2-yl}propanamide] | 10.9 | 32.2
O=C(Cc1ccc(F)cc1)Nc1cc(-c2[nH]c3cc(F)cnc3c2-c2ccccn2)ccn1 [Example 9, 2-(4-fluorophenyl)-N-{4-[6-fluoro-3-(pyridin-2-yl)-1H-pyrrolo[3,2-b]pyridin-2-yl]pyridin-2-yl}acetamide] | 1.68 | 4.76
COCCC(C(=O)Nc1cc(-c2[nH]c3cccnc3c2-c2ccccn2)ccn1)c1ccc(F)cc1 (racemic) [Example 44] | 4.97 | 9.84
O=C(Cc1ccc(F)cc1)Nc1cc(-c2[nH]c3cccnc3c2-c2ncccn2)ccn1 [Example 16, 2-(4-fluorophenyl)-N-{4-[3-(pyrimidin-2-yl)-1H-pyrrolo[3,2-b]pyridin-2-yl]pyridin-2-yl}acetamide] | 4.77 | 9.02
Cc1cc2[nH]c(-c3ccnc(NC(=O)Cc4ccc(F)cc4)c3)c(-c3ccccn3)c2nc1F [Example 27, N-{4-[5-fluoro-6-methyl-3-(pyridin-2-yl)-1H-pyrrolo[3,2-b]pyridin-2-yl]pyridin-2-yl}-2-(4-fluorophenyl)acetamide] | 1.6 | 5.11
O=C(Cc1ccc(F)cc1)Nc1cc(-c2[nH]c3c(C4CC4)ccnc3c2-c2ccccn2)ccn1 [Example 35, N-{4-[7-cyclopropyl-3-(pyridin-2-yl)-1H-pyrrolo[3,2-b]pyridin-2-yl]pyridin-2-yl}-2-(4-fluorophenyl)acetamide] | 2.79 | 4.19
Cc1cc2[nH]c(-c3ccnc(NC(=O)C(C)c4ccc(F)cc4)c3)c(-c3ccccn3)c2nc1F (single isomer, unassigned; (+)) [Example 29, (+)-N-{4-[5-fluoro-6-methyl-3-(pyridin-2-yl)-1H-pyrrolo[3,2-b]pyridin-2-yl]pyridin-2-yl}-2-(4-fluorophenyl)propanamide] | 13.8 | 30.2
CCc1ccnc2c(-c3ccccn3)c(-c3ccnc(NC(=O)Cc4ccc(F)cc4)c3)[nH]c12 [Example 34, N-{4-[7-ethyl-3-(pyridin-2-yl)-1H-pyrrolo[3,2-b]pyridin-2-yl]pyridin-2-yl}-2-(4-fluorophenyl)acetamide] | 3.08 | 3.84
Cc1cc(CC(=O)Nc2cc(-c3[nH]c4cccnc4c3-c3ccccn3)ccn2)ccc1F [Example 41, 2-(4-fluoro-3-methylphenyl)-N-{4-[3-(pyridin-2-yl)-1H-pyrrolo[3,2-b]pyridin-2-yl]pyridin-2-yl}acetamide] | 4.03 | 12.1
